Counter-ions that a name gives are not always drawn. ± gives the standard error.
Tests used:
[1] = system: 621-102 (TSC2-deficient); test: relative viability vs DMSO; higher = less cytotoxic; conditions: serum: 10% FBS, 72 h
[2] = system: 621-103 (TSC2-rescued); test: as above; conditions: serum: 10% FBS, 72 h
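Note: immortalized renal angiomyolipoma cells stably carrying empty vector or TSC2, dosed in 384-well plates in DMEM, viability normalized to vehicle-treated wells within each plate.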

Structure (SMILES)	relative viability ([1]; 0.0001 µM) [%]	relative viability ([1]; 0.001 µM) [%]	relative viability ([1]; 0.01 µM) [%]	relative viability ([1]; 0.1 µM) [%]	relative viability ([1]; 1 µM) [%]	relative viability ([1]; 10 µM) [%]	relative viability ([2]; 0.0001 µM) [%]	relative viability ([2]; 0.001 µM) [%]	relative viability ([2]; 0.01 µM) [%]	relative viability ([2]; 0.1 µM) [%]	relative viability ([2]; 1 µM) [%]	relative viability ([2]; 10 µM) [%]
CCCc1nc(C)c2c(=O)nc(-c3cc(S(=O)(=O)N4CCN(CC)CC4)ccc3OCC)[nH]n12 [Vardenafil (Vivanza)]	103 ± 2.4	104 ± 1.2	104 ± 3.8	104.8 ± 0.49	96.25 ± 0.9	97.2 ± 1.1	101 ± 2.4	103.3 ± 0.7	105 ± 1.5	104 ± 1.1	98.5 ± 4.4	98.6 ± 1.7
COc1cccc(Nc2c(C(N)=O)cnc3c(C)cc(S(=O)(=O)c4cccc(C(=O)N(C)C)c4)cc23)c1	105 ± 5	102 ± 2.6	97.2 ± 5.1	104 ± 2.7	97.1 ± 0.98	95.9 ± 2	104 ± 3.4	103.1 ± 0.49	102 ± 3.5	103.2 ± 0.47	95.9 ± 3.8	93.3 ± 3.2
COc1ccc2[nH]c([S@@+]([O-])Cc3ncc(C)c(OC)c3C)nc2c1 [Esomeprazole sodium (Nexium I.V.)]	93.6 ± 1.3	107 ± 6.9	107 ± 3.4	97.9 ± 3.1	91.1 ± 1	88.632 ± 0.085	111 ± 0.41	99.3 ± 0.93	101.7 ± 0.45	112 ± 4	102 ± 2.5	86.24 ± 0.28
Cc1csc(-c2nnc(Nc3ccc(Oc4ncccc4-c4ccnc(N)n4)cc3)c3ccccc23)c1 [AMG900]	84.8 ± 2	74.8 ± 1.5	75.4 ± 0.76	83.24 ± 0.43	78.91 ± 0.56	76 ± 2.4	88.9 ± 4.5	77.64 ± 0.67	71.5 ± 4.7	77.7 ± 1.1	65.8 ± 2.5	73.6 ± 1.5
CC1=NN(c2ccc(C)c(C)c2)C(=O)/C1=N\Nc1cccc(-c2cccc(C(=O)O)c2)c1O	106.5 ± 0.35	104 ± 3.9	98.5 ± 2.5	108.4 ± 0.85	100.7 ± 0.44	83.7 ± 3.2	99.1 ± 1.1	103 ± 3.9	100.9 ± 0.81	99.8 ± 1	106.9 ± 0.69	90.7 ± 4
CNC(=O)c1cc(COc2nnc(Nc3ccc(Cl)cc3)c3ccoc23)ccn1 [Telatinib (BAY57-9352)]	94.64 ± 0.47	95.1 ± 4.9	83.7 ± 2.7	94.8 ± 1.5	84.3 ± 1.3	48.4 ± 3.9	114 ± 2.4	103.1 ± 0.34	100 ± 2.4	108 ± 2	104 ± 1.8	55.8 ± 4.5
C#Cc1cccc(Nc2ncnc3cc(OCCOC)c(OCCOC)cc23)c1 [Erlotinib]	106.7 ± 1	102 ± 3.1	107.7 ± 1	103 ± 1.4	97.8 ± 1.9	96.7 ± 3.3	99.81 ± 0.92	101 ± 1.1	104 ± 2.2	101.3 ± 0.39	101 ± 2.7	96.6 ± 3.3
COc1ccccc1N1CCN(CCN2C(=O)CC3(CCCC3)CC2=O)CC1 [BMY 7378]	104.1 ± 0.41	110 ± 3.7	100 ± 3.8	104.4 ± 0.88	105 ± 0.26	95.3 ± 2.3	96.7 ± 4.4	96.58 ± 0.1	99.07 ± 0.31	98.2 ± 1.8	105 ± 1.9	105 ± 1.3
CC(C)NCC(O)c1ccc(O)c(O)c1 (stereo not drawn) [Isoprenaline HCl]	103 ± 4.7	99.5 ± 2.4	102 ± 1.1	95.5 ± 4.2	94.6 ± 2.4	98.26 ± 0.6	95.6 ± 2	88 ± 5.3	91.5 ± 1.7	94.2 ± 6.9	91.3 ± 2.6	83.3 ± 1.6
CN(CCOc1ccc(CC2SC(=O)NC2=O)cc1)c1ccccn1 (stereo not drawn) [Rosiglitazone (Avandia)]	112.8 ± 0.24	102 ± 8.2	99.4 ± 1	101 ± 3	102 ± 1.4	89.188 ± 0.073	97.1 ± 3.3	105 ± 2.9	102 ± 2.3	101 ± 3.8	105.9 ± 0.89	105 ± 1.4
CN1C2CCCC1CC(NC(=O)c1nn(C)c3ccccc13)C2 (stereo not drawn) [Granisetron HCl]	101 ± 3.8	99.5 ± 1	94.6 ± 1.2	99.56 ± 0.18	102.3 ± 0.95	95.1 ± 1.5	105.6 ± 0.89	102 ± 1.7	106.4 ± 0.23	106 ± 5.2	103 ± 4.2	102 ± 3
CCC1=C[C@@H]2CN(C1)Cc1c([nH]c3ccccc13)[C@@](C(=O)OC)(c1cc3c(cc1OC)N(C)[C@H]1[C@@](O)(C(=O)OC)[C@H](OC(C)=O)[C@]4(CC)C=CCN5CC[C@@]31[C@H]54)C2 [Vinorelbine(Navelbine)]	51.2 ± 1.2	41.4 ± 1.7	44.2 ± 2.1	38.08 ± 0.27	36.28 ± 0.14	27.51 ± 0.032	50.3 ± 2.2	37.9 ± 1.1	39 ± 0.6	31.2 ± 0.92	29.86 ± 0.072	24.6 ± 0.88
O=C1NC(=O)/C(=C/c2ccc3nccc(-c4ccncc4)c3c2)S1	101 ± 3.6	106.8 ± 0.82	105 ± 5.2	97.8 ± 5.1	80.5 ± 5	32.8 ± 1.8	94.69 ± 0.22	101.8 ± 0.76	107 ± 2	101.5 ± 0.46	93.69 ± 0.33	33.1 ± 0.64
Cc1nc(=O)c2cc(CN(C)c3ccc(C(=O)N[C@@H](CCC(=O)O)C(=O)O)s3)ccc2[nH]1 [Raltitrexed (Tomudex)]	86.7 ± 3.5	92.8 ± 1.6	107 ± 1.7	103.6 ± 0.8	92.5 ± 1.6	80.3 ± 1.2	99.1 ± 5.1	97.1 ± 4.5	115 ± 4.2	113 ± 1.8	102.7 ± 0.7	96.3 ± 3.2
CC(C)c1cc(-c2ccc(F)c3ccccc23)nc(N)n1	91.6 ± 2.5	107 ± 7	99.3 ± 4.8	94.6 ± 1.2	93.4 ± 2.1	97.22 ± 0.33	96.2 ± 4.6	92.2 ± 4.8	97.9 ± 1.5	107 ± 3.5	101.7 ± 0.2	98.4 ± 1.7
Cn1cc(-c2ccc3nnc(C(F)(F)c4ccc5ncccc5c4)n3n2)cn1	101 ± 1.6	100.8 ± 0.26	99.2 ± 1.3	95.7 ± 1.9	96.8 ± 4.5	98.19 ± 0.64	102 ± 1.7	101 ± 1.4	100.6 ± 0.28	100.3 ± 0.23	100.3 ± 0.95	98.25 ± 0.26
COc1cc(Nc2c(C#N)cnc3cc(OCCCN4CCN(C)CC4)c(OC)cc23)c(Cl)cc1Cl [Bosutinib (SKI-606)]	94.6 ± 3.7	109 ± 3.2	92.7 ± 6.8	103 ± 7.9	64.3 ± 7.2	3.18 ± 0.88	85.39 ± 0.5	93.6 ± 3	94.5 ± 6	90.2 ± 6.4	69.5 ± 4	1.86 ± 0.19
CCCCCCCCCCCCCCCC(=O)OC[C@H](O)[C@H]1OC(=O)C(O)=C1O [L-Ascorbyl 6-palmitate]	122 ± 5.9	111 ± 2.5	107 ± 3.4	107 ± 1.8	106.5 ± 0.81	111 ± 2.4	99.8 ± 2.5	105.8 ± 0.61	96.5 ± 3.2	100 ± 2.4	97.4 ± 2.1	94.9 ± 5
Cc1cc(C(C)(C)C)c(O)c(C)c1CC1=NCCN1 [Oxymetazoline HCl]	120 ± 4.5	116 ± 4.1	112 ± 2	107 ± 4.2	113.2 ± 0.75	103 ± 2.8	99.9 ± 0.63	96.5 ± 1.5	99.3 ± 6	98.5 ± 5	103 ± 4.4	98.8 ± 3.1

— the supplement of paper PMC8960247
